The results in this text go back to patent publication EP0173754A1, “7-THIAPROSTAGLANDIN E 1?'S AND PROCESS FOR THEIR PREPARATION” (TEIJIN LIMITED, priority 1984, dated 1985).

Experiment [1] concerns blood platelet aggregation. The experiment is described as follows: In vitro blood platelet aggregation inhibition (ADP-induced, rabbit PRP). The format is cell-based, rabbits. The note with it: Oryctolagus cuniculus, 10 uM ADP (final), preincubated 37°C 2 minutes, read-out: Anti-platelet aggregation effect IC50. An excerpt:
The in vitro blood platelet aggregation inhibition effect of the sample compounds to be tested was examined by using rabbits. That is, blood was collected from the ear vein of native Japanese white male domestic rabbits weighing 2.5 to 3.5 kg. The collected blood was 9 parts by volume per 1 part by volume of a 3.8% sodium citrate solution. The blood was centrifuged at 1000 r.p.m. for 10 mintues. The upper layer portion was separated as PRP (rich in platelet blood plasma). The lower layer portion was further centrifuged at 2800 r.p.m. for 10 mintues to divide it into two layers. The upper layer portion was separated as PPP (poor in platelet blood plasma). The number of the platelet was diluted with PPP to 6 to […]. […]
When the activity of the sample compounds was determined, the ethanol solution was diluted with a phosphoric acid buffer (PH 7.4). The ethanol solution diluted with the buffer was left to stand at a temperature of 0°C for 4 hours, after which the activity of the sample compounds was determined in the same manner.
The platelet aggregation inhibition was calculated by the following formula: [formula] • T : the transmittance of the system to which the phosphoric acid buffer is added • T: the transmittance of the system to which the sample compounds are added […]

For experiment [2], the system named is Ethanol Ulcer. In words: Effect against ethanol ulcer in rats. The format is in vivo. The settings on record: Rattus norvegicus, po, 1 h; P.O; SD type male rats; 75% ethanol 1 ml/kg orally 30 minutes after sample; ulcer length one hour after ethanol; read-out: Antiulcerative effect ED50. As for the experimental part:
SD type male rats (7 weeks old and body weight of 220 g) were abstained from food for 24 hours except giving water and then subjected to experiments.
The sample compound to be tested was dissolved in a phosphoric acid buffer (pH 7.4) containing 0.9% NaCl and the solution was orally administered to the rats. 30 minutes after the administration, 75% ethanol was orally administered to the rats at a dose of 1 ml/kg. One hour after the administration of the ethanol, the rats were killed and the ulcer formation in the stomach was examined by determining the length of the ulcer formation portion under a stereomicroscope. From this measurement, the inhibition of ulcer formation by the sample compound was calculated to determine the ED50 value.

Experiment [3] concerns ulcer formation induced by indomethacin. In words: Antiulcerative effect: inhibition of indomethacin-induced ulcer formation in rats. The format is in vivo. The note with it: Rattus norvegicus, po; P.O; Wister male rats; indomethacin 20 mg/kg orally 30 minutes after sample; ulcer length 5 hours after indomethacin. Here is the method: The inhibiting effect on ulcer formation induced by indomethacin was examined by using rats. Wister male rats (7 weeks old and body weight of 220 g) were abstained from food for 24 hours except giving water and then subjected to experiments.
The sample compounds to be tested were dissolved in a phosphoric acid buffer (pH 7.4) containing 0.9% NaCl and the solution was orally administered to the rats. 30 minutes after the administration, indomethacin was orally administered to the rats at a dose of 20 mg/kg. 5 hours after the administration of the indomethacin, the rats were kileld and the ulcer formation in the stomach was examined by determining the length of the ulcer formation portion under a stereomicroscope. From this measurement, the inhibition of ulcer formation by the sample compounds were calculated to determine the ED50 values.

≈ marks a conversion by molar mass, not a printed value.

By IC50 is commonly meant the concentration that inhibits the measured activity by half. In general, ED50 refers to the dose at which the effect has come halfway, by size or by number of responders. `CCCCC(O)C/C=C/[C@H]1[C@H](O)CC(=O)[C@@H]1SCCCCCC(=O)OC` (stereo partly drawn) [Compound of this invention]: the IC50 in experiment [1] was 17 µg/mL (≈ 44 µM). The median effective dose (ED50) was 0.018 mg/kg in experiment [2] and 0.01 mg/kg in experiment [3].
